Data published in PubChem BioAssay AID1963448 (Molecular Pharmacology Branch, DTP, NCI, 2024).

Test system: 616215-338-R-J1-PDC complex spheroid growth, % test/control
Test: Anticancer human tumor 616215-338-R-J1-PDC patient-derived colon adenocarcinoma cell line growth inhibition [Asc]
Details: for IC50: curve of first compound; for viability, T/C: stronger effect = lower value
How it was run: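 Stromal components (HUVEC and hMSC) are co-assembled with the cancer cells into multicellular spheroids. Drugs are then added singly or paired, at concentrations falling by half-log increments from a clinically achievable maximum, capped at 10 microM without known Cmax.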
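Also: spheroids exposed to agents for seven days before readout.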
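For viability, T/C in this document: 100% = DMSO vehicle control viability.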

Compound: Cc1nc(N2CCC3(CC2)COC(C)C3N)c(CO)nc1Sc1ccnc(N)c1Cl (configuration not stated) + Cc1c(S(C)(=O)=O)c(-c2cc(F)cc(N3CCN(c4ccc(NS(=O)(=O)c5ccc(NC(CCN6CCC(C(=O)OCCCP(=O)(O)O)CC6)CSc6ccccc6)c(S(=O)(=O)C(F)(F)F)c5)cc4)CC3)c2)c(-c2ccc(Cl)cc2)n1C(C)C
- IC50 (second compound 0.1 µM): > 3000 nM
- IC50 (second compound 0.316 µM): > 3000 nM
- IC50 (second compound 1 µM): > 3000 nM
- IC50 (second compound 3.16 µM): < 9.49 nM
- IC50 (second compound 10 µM): < 9.49 nM
- viability, T/C (second compound 0.1 µM, first compound 0.00949 µM): 97.8%
- viability, T/C (second compound 0.1 µM, first compound 0.03 µM): 102%
- viability, T/C (second compound 0.1 µM, first compound 0.0949 µM): 100%
- viability, T/C (second compound 0.1 µM, first compound 0.3 µM): 95.9%
- viability, T/C (second compound 0.1 µM, first compound 0.949 µM): 84.5%
- viability, T/C (second compound 0.1 µM, first compound 3 µM): 76.7%
- viability, T/C (second compound 0.316 µM, first compound 0.00949 µM): 96.7%
- viability, T/C (second compound 0.316 µM, first compound 0.03 µM): 92.8%
- viability, T/C (second compound 0.316 µM, first compound 0.0949 µM): 94.5%
- viability, T/C (second compound 0.316 µM, first compound 0.3 µM): 94.9%
- viability, T/C (second compound 0.316 µM, first compound 0.949 µM): 76.6%
- viability, T/C (second compound 0.316 µM, first compound 3 µM): 71.3%
- viability, T/C (second compound 1 µM, first compound 0.00949 µM): 68%
- viability, T/C (second compound 1 µM, first compound 0.03 µM): 67.8%
- viability, T/C (second compound 1 µM, first compound 0.0949 µM): 68.9%
- viability, T/C (second compound 1 µM, first compound 0.3 µM): 66.7%
- viability, T/C (second compound 1 µM, first compound 0.949 µM): 61.7%
- viability, T/C (second compound 1 µM, first compound 3 µM): 55.6%
- viability, T/C (second compound 3.16 µM, first compound 0.00949 µM): 38.2%
- viability, T/C (second compound 3.16 µM, first compound 0.03 µM): 38.4%
- viability, T/C (second compound 3.16 µM, first compound 0.0949 µM): 34.2%
- viability, T/C (second compound 3.16 µM, first compound 0.3 µM): 36.8%
- viability, T/C (second compound 3.16 µM, first compound 0.949 µM): 25.9%
- viability, T/C (second compound 3.16 µM, first compound 3 µM): 21.9%
- viability, T/C (second compound 10 µM, first compound 0.00949 µM): 29.4%
- viability, T/C (second compound 10 µM, first compound 0.03 µM): 25.6%
- viability, T/C (second compound 10 µM, first compound 0.0949 µM): 30.2%
- viability, T/C (second compound 10 µM, first compound 0.3 µM): 21.1%
- viability, T/C (second compound 10 µM, first compound 0.949 µM): 9.17%
- viability, T/C (second compound 10 µM, first compound 3 µM): 6.63%

Compound: NC1CCC(NC2CC2c2ccccc2)CC1 (configuration not stated) + CNC(C)C(=O)NC1CN(S(=O)(=O)c2cccc(S(=O)(=O)N3CCC4CCC(C(=O)NC(c5ccccc5)c5ccccc5)N4C(=O)C(NC(=O)C(C)NC)C3)c2)CCC2CCC(C(=O)NC(c3ccccc3)c3ccccc3)N2C1=O
- IC50 (second compound 0.00316 µM): > 100 nM
- IC50 (second compound 0.01 µM): > 100 nM
- IC50 (second compound 0.0316 µM): > 100 nM
- IC50 (second compound 0.1 µM): > 100 nM
- IC50 (second compound 0.316 µM): > 100 nM
- IC50 (second compound 1 µM): > 100 nM
- viability, T/C (second compound 0.00316 µM, first compound 0.000316 µM): 101%
- viability, T/C (second compound 0.00316 µM, first compound 0.001 µM): 94.2%
- viability, T/C (second compound 0.00316 µM, first compound 0.00316 µM): 73.6%
- viability, T/C (second compound 0.00316 µM, first compound 0.01 µM): 93.9%
- viability, T/C (second compound 0.00316 µM, first compound 0.0316 µM): 103%
- viability, T/C (second compound 0.00316 µM, first compound 0.1 µM): 91%
- viability, T/C (second compound 0.01 µM, first compound 0.000316 µM): 96.7%
- viability, T/C (second compound 0.01 µM, first compound 0.001 µM): 93.9%
- viability, T/C (second compound 0.01 µM, first compound 0.00316 µM): 95.7%
- viability, T/C (second compound 0.01 µM, first compound 0.01 µM): 100%
- viability, T/C (second compound 0.01 µM, first compound 0.0316 µM): 95.2%
- viability, T/C (second compound 0.01 µM, first compound 0.1 µM): 98%
- viability, T/C (second compound 0.0316 µM, first compound 0.000316 µM): 92%
- viability, T/C (second compound 0.0316 µM, first compound 0.001 µM): 89.8%
- viability, T/C (second compound 0.0316 µM, first compound 0.00316 µM): 89.9%
- viability, T/C (second compound 0.0316 µM, first compound 0.01 µM): 82.8%
- viability, T/C (second compound 0.0316 µM, first compound 0.0316 µM): 96.1%
- viability, T/C (second compound 0.0316 µM, first compound 0.1 µM): 95.3%
- viability, T/C (second compound 0.1 µM, first compound 0.000316 µM): 100%
- viability, T/C (second compound 0.1 µM, first compound 0.001 µM): 87%
- viability, T/C (second compound 0.1 µM, first compound 0.00316 µM): 92.2%
- viability, T/C (second compound 0.1 µM, first compound 0.01 µM): 99%
- viability, T/C (second compound 0.1 µM, first compound 0.0316 µM): 98.7%
- viability, T/C (second compound 0.1 µM, first compound 0.1 µM): 89.8%
- viability, T/C (second compound 0.316 µM, first compound 0.000316 µM): 103%
- viability, T/C (second compound 0.316 µM, first compound 0.001 µM): 94.2%
- viability, T/C (second compound 0.316 µM, first compound 0.00316 µM): 88.4%
- viability, T/C (second compound 0.316 µM, first compound 0.01 µM): 97.5%
- viability, T/C (second compound 0.316 µM, first compound 0.0316 µM): 102%
- viability, T/C (second compound 0.316 µM, first compound 0.1 µM): 90.7%
- viability, T/C (second compound 1 µM, first compound 0.000316 µM): 103%
- viability, T/C (second compound 1 µM, first compound 0.001 µM): 91%
- viability, T/C (second compound 1 µM, first compound 0.00316 µM): 95.4%
- viability, T/C (second compound 1 µM, first compound 0.01 µM): 72.9%
- viability, T/C (second compound 1 µM, first compound 0.0316 µM): 98.5%
- viability, T/C (second compound 1 µM, first compound 0.1 µM): 84.7%
